In ChEMBL document CHEMBL4270599, “Synthesis of a 3'-C-ethynyl-β-d-ribofuranose purine nucleoside library: Discovery of C7-deazapurine analogs as potent antiproliferative nucleosides” (Eur J Med Chem, 2018):

What was measured:
Type in all cases: functional
OVCAR-3 = test: Growth inhibition of human OVCAR3 cells assessed as cell growth at 10^-6 M incubated for 48 hrs by sulforhodamine B assay relative to control; settings: OVCAR-3, 48 h, read-out: Activity
SF-268 [1] = test: Growth inhibition of human SF268 cells assessed as cell growth at 10^-6 M incubated for 48 hrs by sulforhodamine B assay relative to control; settings: SF-268, 48 h, read-out: Activity
NCI-H322M [2] = test: Cytotoxicity against human NCI-H322M cells after 48 hrs by SRB assay
786-0 = test: Growth inhibition of human 786-0 cells assessed as cell growth at 10^-6 M incubated for 48 hrs by sulforhodamine B assay relative to control; settings: 786-0, 48 h, read-out: Activity
MCF7 = test: Growth inhibition of human MCF7 cells assessed as cell growth at 10^-7 M incubated for 48 hrs by sulforhodamine B assay relative to control; settings: MCF7, 48 h, read-out: Activity
HCT-116 [3] = test: Cytotoxicity against human HCT116 cells after 48 hrs by SRB assay; settings: HCT-116, 48 h
EKVX = test: Growth inhibition of human EKVX cells assessed as cell growth at 10^-6 M incubated for 48 hrs by sulforhodamine B assay relative to control; settings: read-out: Activity
NCI-H322M [4] = test: Growth inhibition of human NCI-H322M cells assessed as cell growth at 10^-8 M incubated for 48 hrs by sulforhodamine B assay relative to control; settings: read-out: Activity
SF-268 [5] = test: Growth inhibition of human SF268 cells assessed as cell growth at 10^-5 M incubated for 48 hrs by sulforhodamine B assay relative to control; settings: SF-268, 48 h, read-out: Activity
Hs-578T = test: Cytotoxicity against human Hs 578T cells after 48 hrs by SRB assay
OVCAR-4 = test: Growth inhibition of human OVCAR4 cells assessed as cell growth at 10^-6 M incubated for 48 hrs by sulforhodamine B assay relative to control; settings: OVCAR-4, 48 h, read-out: Activity
HCT-15 = test: Growth inhibition of human HCT15 cells assessed as cell growth at 10^-5 M incubated for 48 hrs by sulforhodamine B assay relative to control; settings: HCT-15, 48 h, read-out: Activity
HCT-116 [6] = test: Growth inhibition of human HCT116 cells assessed as cell growth at 10^-5 M incubated for 48 hrs by sulforhodamine B assay relative to control; settings: HCT-116, 48 h, read-out: Activity
NCI-H322M [7] = test: Growth inhibition of human NCI-H322M cells assessed as cell growth at 10^-6 M incubated for 48 hrs by sulforhodamine B assay relative to control; settings: read-out: Activity
HT-29 [8] = test: Cytotoxicity against human HT-29 cells after 48 hrs by SRB assay; settings: HT-29, 48 h
RPMI-8226 = test: Growth inhibition of human RPMI8226 cells assessed as cell growth at 10^-8 M incubated for 48 hrs by sulforhodamine B assay relative to control; settings: RPMI-8226, 48 h, read-out: Activity
NCI-H460 = test: Growth inhibition of human NCI-H460 cells assessed as cell growth at 10^-7 M incubated for 48 hrs by sulforhodamine B assay relative to control; settings: NCI-H460, 48 h, read-out: Activity
SNB-75 = test: Growth inhibition of human SNB75 cells assessed as cell growth at 10^-7 M incubated for 48 hrs by sulforhodamine B assay relative to control; settings: SNB-75, 48 h, read-out: Activity
PC-3 = test: Growth inhibition of human PC3 cells assessed as cell growth at 10^-7 M incubated for 48 hrs by sulforhodamine B assay relative to control; settings: PC-3, 48 h, read-out: Activity
UO-31 = test: Growth inhibition of human UO31 cells assessed as cell growth at 10^-7 M incubated for 48 hrs by sulforhodamine B assay relative to control; settings: UO-31, 48 h, read-out: Activity
COLO 205 = test: Growth inhibition of human COLO205 cells assessed as cell growth at 10^-8 M incubated for 48 hrs by sulforhodamine B assay relative to control; settings: COLO 205, 48 h, read-out: Activity
SK-OV-3 = test: Growth inhibition of human SKOV3 cells assessed as cell growth at 10^-7 M incubated for 48 hrs by sulforhodamine B assay relative to control; settings: SK-OV-3, 48 h, read-out: Activity
HOP-62 = test: Cytotoxicity against human HOP62 cells after 48 hrs by SRB assay; settings: HOP-62, 48 h
OVCAR-5 = test: Cytotoxicity against human OVCAR5 cells after 48 hrs by SRB assay; settings: OVCAR-5, 48 h
HT-29 [9] = test: Growth inhibition of human HT-29 cells assessed as cell growth at 10^-7 M incubated for 48 hrs by sulforhodamine B assay relative to control; settings: HT-29, 48 h, read-out: Activity
NCI-H23 = test: Growth inhibition of human NCI-H23 cells assessed as cell growth at 10^-8 M incubated for 48 hrs by sulforhodamine B assay relative to control; settings: NCI-H23, 48 h, read-out: Activity
[10] = read-out: pLC50 (the source's name) (converted)
[11] = read-out: LC50 (the source's name)

## C#C[C@@]1(O)[C@@H](CO)O[C@@H](n2cc(Cl)c3c(N)ncnc32)[C@@H]1O
OVCAR-3
  growth at 1 µM: 5 to 7%
SF-268 [1]
  growth at 1 µM: 23 to 24%
NCI-H322M [2]; read-out: GI50
  GI50: 206 to 334 nM
NCI-H322M [2]; read-out: TGI
  TGI: 2120 to 4630 nM
NCI-H322M [2]; [10]
  CC50: > 100000 nM
786-0
  growth at 1 µM: 9 to 11%
MCF7
  growth at 0.1 µM: 17 to 25%
HCT-116 [3]; read-out: GI50
  GI50: 18.5 to 22.1 nM
HCT-116 [3]; read-out: TGI
  TGI: > 100000 nM
HCT-116 [3]; [10]
  CC50: > 100000 nM
HCT-116 [3]; read-out: pTGI (converted)
  TGI: > 100000 nM
EKVX
  growth at 1 µM: 10%
NCI-H322M [4]
  growth at 0.01 µM: 93 to 100%
SF-268 [5]
  growth at 10 µM: 2 to 7%
Hs-578T; read-out: GI50
  GI50: 463 to 2480 nM
Hs-578T; read-out: TGI
  TGI: 7010 to 100000 nM
Hs-578T; [10]
  CC50: > 100000 nM
OVCAR-4
  growth at 1 µM: 5 to 13%
HCT-15
  growth at 10 µM: 1%
HCT-116 [6]
  growth at 10 µM: 4%
NCI-H322M [7]
  growth at 1 µM: 13 to 23%
HT-29 [8]; read-out: GI50
  GI50: 32.2 to 59.1 nM
HT-29 [8]; [11]
  CC50: > 100000 nM
HT-29 [8]; read-out: TGI
  TGI: 747 to 100000 nM
RPMI-8226
  growth at 0.01 µM: 99 to 100%
NCI-H460
  growth at 0.1 µM: 13 to 27%
SNB-75
  growth at 0.1 µM: 104 to 110%
PC-3
  growth at 0.1 µM: 62 to 70%
UO-31
  growth at 0.1 µM: 61 to 69%
COLO 205
  growth at 0.01 µM: 93 to 96%
SK-OV-3
  growth at 0.1 µM: 56 to 72%
HOP-62; read-out: GI50
  GI50: 216 to 299 nM
HOP-62; read-out: TGI
  TGI: 1160 to 3350 nM
HOP-62; [10]
  CC50: > 100000 nM
OVCAR-5; read-out: GI50
  GI50: 280 to 644 nM
OVCAR-5; [11]
  CC50: > 100000 nM
OVCAR-5; read-out: TGI
  TGI: 70800 to 100000 nM
HT-29 [9]
  growth at 0.1 µM: 18 to 38%
NCI-H23
  growth at 0.01 µM: 88 to 89%
